# Assay results reported in the supplement of paper PMC10307832.
# How the values were obtained:
# Assay in all cases: relative viability (nuclei count vs DMSO), 5 days (fraction); higher = more cells survive
# COR-L 105 = test system: COR-L 105
# Summary of the method: (§1)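 Cells from lung cancer lines were seeded into 1536-well plates and, one day later, dosed by pin tool. Treatments were either a single drug or a fixed dose of an anchor drug with five library-drug doses (not always all listed) in √10 steps. After 5 days, nuclei were stained in a one-step fixation (final 0.05% Triton X-100, 1% formaldehyde, 1 ug/ml Hoechst) and counted on 4× images, and relative viability is the treated-to-vehicle nuclei ratio, as the median of duplicate plates.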
# RERF-LC-KJ = test system: RERF-LC-KJ
# Summary of the method: as §1
# ChaGo-K-1 = test system: ChaGo-K-1
# Summary of the method: as §1
# NCI-H2126 = test system: NCI-H2126
# Summary of the method: as §1
# NCI-H647 = test system: NCI-H647
# Summary of the method: as §1
# PC-14 = test system: PC-14
# Summary of the method: as §1
# NCI-H23 = test system: NCI-H23
# Summary of the method: as §1
# NCI-H1666 = test system: NCI-H1666
# Summary of the method: as §1
# 201T = test system: 201T
# Summary of the method: as §1
# LC-2-ad = test system: LC-2-ad
# Summary of the method: as §1
# H3255 = test system: H3255
# Summary of the method: as §1
# HCC-78 = test system: HCC-78
# Summary of the method: as §1
# NCI-H522 = test system: NCI-H522
# Summary of the method: as §1
# HCC-827 = test system: HCC-827
# Summary of the method: as §1
# NCI-H661 = test system: NCI-H661
# Summary of the method: as §1
# NCI-H2087 = test system: NCI-H2087
# Summary of the method: as §1
# NCI-H2347 = test system: NCI-H2347
# Summary of the method: as §1
# NCI-H322M = test system: NCI-H322M
# Summary of the method: as §1
# NCI-H650 = test system: NCI-H650
# Summary of the method: as §1
# LCLC-97TM1 = test system: LCLC-97TM1
# Summary of the method: as §1
# NCI-H1915 = test system: NCI-H1915
# Summary of the method: as §1
# NCI-H2405 = test system: NCI-H2405
# Summary of the method: as §1
# EPLC-272H = test system: EPLC-272H
# Summary of the method: as §1
# NCI-H520 = test system: NCI-H520
# Summary of the method: as §1
compound,measurement,setting,value
Clc1ccc(Nc2nnc(Cc3ccncc3)c3ccccc23)cc1 [Vatalanib] + COc1cccc2cc(-c3nc([C@H]4CC[C@H](C(=O)O)CC4)n4ncnc(N)c34)[nH]c12 [OSI-027] (partner 0.5 µM),relative viability,COR-L 105; first compound 0.04 µM,0.694
same,relative viability,COR-L 105; first compound 0.1265 µM,0.59
same,relative viability,COR-L 105; first compound 0.4 µM,0.721
same,relative viability,COR-L 105; first compound 1.265 µM,0.721
same,relative viability,COR-L 105; first compound 4 µM,0.561
same,relative viability,RERF-LC-KJ; first compound 0.04 µM,0.657
same,relative viability,RERF-LC-KJ; first compound 0.1265 µM,0.591
same,relative viability,RERF-LC-KJ; first compound 0.4 µM,0.588
same,relative viability,RERF-LC-KJ; first compound 1.265 µM,0.549
same,relative viability,RERF-LC-KJ; first compound 4 µM,0.564
same,relative viability,ChaGo-K-1; first compound 0.04 µM,0.589
same,relative viability,ChaGo-K-1; first compound 0.1265 µM,0.548
same,relative viability,ChaGo-K-1; first compound 0.4 µM,0.622
same,relative viability,ChaGo-K-1; first compound 1.265 µM,0.5
same,relative viability,ChaGo-K-1; first compound 4 µM,0.594
same,relative viability,NCI-H2126; first compound 0.04 µM,0.692
same,relative viability,NCI-H2126; first compound 0.1265 µM,0.693
same,relative viability,NCI-H2126; first compound 0.4 µM,0.797
same,relative viability,NCI-H2126; first compound 1.265 µM,0.62
same,relative viability,NCI-H2126; first compound 4 µM,0.625
same,relative viability,NCI-H647; first compound 0.04 µM,0.654
same,relative viability,NCI-H647; first compound 0.1265 µM,0.597
same,relative viability,NCI-H647; first compound 0.4 µM,0.634
same,relative viability,NCI-H647; first compound 1.265 µM,0.568
same,relative viability,NCI-H647; first compound 4 µM,0.671
same,relative viability,PC-14; first compound 0.04 µM,1.05
same,relative viability,PC-14; first compound 0.1265 µM,0.782
same,relative viability,PC-14; first compound 0.4 µM,0.844
same,relative viability,PC-14; first compound 1.265 µM,0.672
same,relative viability,PC-14; first compound 4 µM,0.849
same,relative viability,NCI-H23; first compound 0.04 µM,0.634
same,relative viability,NCI-H23; first compound 0.1265 µM,0.613
same,relative viability,NCI-H23; first compound 0.4 µM,0.779
same,relative viability,NCI-H23; first compound 1.265 µM,0.517
same,relative viability,NCI-H23; first compound 4 µM,0.387
same,relative viability,NCI-H1666; first compound 0.04 µM,0.852
same,relative viability,NCI-H1666; first compound 0.1265 µM,0.815
same,relative viability,NCI-H1666; first compound 0.4 µM,0.883
same,relative viability,NCI-H1666; first compound 1.265 µM,0.802
same,relative viability,NCI-H1666; first compound 4 µM,0.82
same,relative viability,201T; first compound 0.04 µM,0.759
same,relative viability,201T; first compound 0.1265 µM,0.698
same,relative viability,201T; first compound 0.4 µM,0.889
same,relative viability,201T; first compound 1.265 µM,0.657
same,relative viability,201T; first compound 4 µM,0.666
same,relative viability,LC-2-ad; first compound 0.04 µM,0.935
same,relative viability,LC-2-ad; first compound 0.1265 µM,0.865
same,relative viability,LC-2-ad; first compound 1.265 µM,0.785
same,relative viability,LC-2-ad; first compound 4 µM,0.826
same,relative viability,H3255; first compound 0.04 µM,0.566
same,relative viability,H3255; first compound 0.1265 µM,0.529
same,relative viability,H3255; first compound 0.4 µM,0.51
same,relative viability,H3255; first compound 1.265 µM,0.584
same,relative viability,H3255; first compound 4 µM,0.504
same,relative viability,HCC-78; first compound 0.04 µM,0.318
same,relative viability,HCC-78; first compound 0.1265 µM,0.37
same,relative viability,HCC-78; first compound 0.4 µM,0.381
same,relative viability,HCC-78; first compound 1.265 µM,0.306
same,relative viability,HCC-78; first compound 4 µM,0.351
same,relative viability,NCI-H522; first compound 0.04 µM,0.703
same,relative viability,NCI-H522; first compound 0.1265 µM,0.677
same,relative viability,NCI-H522; first compound 0.4 µM,0.73
same,relative viability,NCI-H522; first compound 1.265 µM,0.714
same,relative viability,NCI-H522; first compound 4 µM,0.796
same,relative viability,HCC-827; first compound 0.04 µM,0.818
same,relative viability,HCC-827; first compound 0.1265 µM,0.729
same,relative viability,HCC-827; first compound 0.4 µM,0.739
same,relative viability,HCC-827; first compound 1.265 µM,0.744
same,relative viability,HCC-827; first compound 4 µM,0.705
same,relative viability,NCI-H661; first compound 0.04 µM,0.737
same,relative viability,NCI-H661; first compound 0.1265 µM,0.699
same,relative viability,NCI-H661; first compound 0.4 µM,0.709
same,relative viability,NCI-H661; first compound 1.265 µM,0.717
same,relative viability,NCI-H661; first compound 4 µM,0.67
same,relative viability,NCI-H2087; first compound 0.04 µM,0.673
same,relative viability,NCI-H2087; first compound 0.1265 µM,0.468
same,relative viability,NCI-H2087; first compound 0.4 µM,0.647
same,relative viability,NCI-H2087; first compound 1.265 µM,0.548
same,relative viability,NCI-H2087; first compound 4 µM,0.564
same,relative viability,NCI-H2347; first compound 0.04 µM,0.397
same,relative viability,NCI-H2347; first compound 0.1265 µM,0.391
same,relative viability,NCI-H2347; first compound 0.4 µM,0.488
same,relative viability,NCI-H2347; first compound 1.265 µM,0.464
same,relative viability,NCI-H2347; first compound 4 µM,0.364
same,relative viability,NCI-H322M; first compound 0.04 µM,0.573
same,relative viability,NCI-H322M; first compound 0.1265 µM,0.546
same,relative viability,NCI-H322M; first compound 0.4 µM,0.493
same,relative viability,NCI-H322M; first compound 1.265 µM,0.52
same,relative viability,NCI-H322M; first compound 4 µM,0.481
same,relative viability,NCI-H650; first compound 0.04 µM,0.627
same,relative viability,NCI-H650; first compound 0.1265 µM,0.49
same,relative viability,NCI-H650; first compound 1.265 µM,0.491
same,relative viability,NCI-H650; first compound 4 µM,0.523
same,relative viability,LCLC-97TM1; first compound 0.04 µM,0.45
same,relative viability,LCLC-97TM1; first compound 0.1265 µM,0.398
same,relative viability,LCLC-97TM1; first compound 0.4 µM,0.552
same,relative viability,LCLC-97TM1; first compound 1.265 µM,0.531
same,relative viability,LCLC-97TM1; first compound 4 µM,0.42
same,relative viability,NCI-H1915; first compound 0.04 µM,0.673
same,relative viability,NCI-H1915; first compound 0.1265 µM,0.636
same,relative viability,NCI-H1915; first compound 0.4 µM,0.632
same,relative viability,NCI-H1915; first compound 1.265 µM,0.649
same,relative viability,NCI-H1915; first compound 4 µM,0.61
same,relative viability,NCI-H2405; first compound 0.04 µM,0.665
same,relative viability,NCI-H2405; first compound 0.1265 µM,0.631
same,relative viability,NCI-H2405; first compound 1.265 µM,0.666
same,relative viability,NCI-H2405; first compound 4 µM,0.608
same,relative viability,EPLC-272H; first compound 0.04 µM,0.268
same,relative viability,EPLC-272H; first compound 0.1265 µM,0.259
same,relative viability,EPLC-272H; first compound 0.4 µM,0.323
same,relative viability,EPLC-272H; first compound 1.265 µM,0.301
same,relative viability,EPLC-272H; first compound 4 µM,0.303
same,relative viability,NCI-H520; first compound 0.04 µM,0.25
same,relative viability,NCI-H520; first compound 0.1265 µM,0.23
same,relative viability,NCI-H520; first compound 0.4 µM,0.244
same,relative viability,NCI-H520; first compound 1.265 µM,0.252
same,relative viability,NCI-H520; first compound 4 µM,0.224
